Laboratory results from patent publication US20230355597A1, “COMPOUNDS, COMPOSITIONS, AND METHODS FOR THE TREATMENT AND PREVENTION OF AVIAN PATHOGENIC E. COLI (APEC)” (OHIO STATE INNOVATION FOUNDATION, priority 2018, published 2023).
Like-named read-outs stand apart in the source and are kept apart here. Marks after values point to notes of the source that are not given here.

Legend:
[1] = tested on: APEC O8; format: cell-based, avian pathogenic Escherichia coli (APEC); settings: APEC O8, M63 media; MIC/MBC
[2] = tested on: intracellular APEC O78 in HD11 cells; experiment: Intracellular survival assay (cidal SMs); settings: O78, HD11, 6 h treatment; superscript = multiple of MIC
[3] = tested on: APEC O2; format: cell-based, avian pathogenic Escherichia coli (APEC); settings: APEC O2, M63 media; MIC/MBC
[4] = tested on: intracellular APEC O1 in HD11 cells; experiment: Intracellular survival assay (cidal SMs); settings: O1, HD11, 6 h treatment; superscript = multiple of MIC
[5] = tested on: APEC O78; experiment: Loss of 260/280 nm absorbing materials assay; format: cell-based, avian pathogenic Escherichia coli (APEC); settings: 2X MBC, 1 h, *P<0.05 vs DMSO
[6] = tested on: APEC O78; experiment: Confocal microscopy bacterial cytological profiling; format: cell-based, avian pathogenic Escherichia coli (APEC); settings: 2X MBC
Method: Confocal and scanning electron microscopy. Confocal microscopy was used for bacterial cytological profiling (BCP) to identify the cellular pathways targeted by SMs as described previously. […] After incubation, treated cultures were centrifuged, washed, and resuspended in 100 μL PBS. […] Cultures were then centrifuged, washed, and resuspended in PBS to 1⁄10th volume of the original cultures.

[7] = tested on: APEC O115; format: cell-based, avian pathogenic Escherichia coli (APEC); settings: APEC O115, M63 media; MIC/MBC
[8] = tested on: APEC O2-211; format: cell-based, avian pathogenic Escherichia coli (APEC); settings: APEC O2-211, M63 media; MIC/MBC
[9] = tested on: APEC O15; format: cell-based, avian pathogenic Escherichia coli (APEC); settings: APEC O15, M63 media; MIC/MBC
[10] = tested on: Shiga toxin-producing (STEC) O157 and O26 strains; format: cell-based, E. coli; settings: 100 µM, M63 media
[11] = tested on: intracellular APEC O78 in THP-1 cells; experiment: Intracellular survival assay (cidal SMs); settings: O78, THP-1, 6 h treatment; superscript = multiple of MIC
[12] = tested on: intracellular APEC O78 in Caco-2 cells; experiment: Intracellular survival assay (cidal SMs); settings: O78, Caco-2, 6 h treatment; superscript = multiple of MIC
[13] = tested on: APEC O109; format: cell-based, avian pathogenic Escherichia coli (APEC); settings: APEC O109, M63 media; MIC/MBC
[14] = tested on: intracellular APEC O1 in THP-1 cells; experiment: Intracellular survival assay (cidal SMs); settings: O1, THP-1, 6 h treatment; superscript = multiple of MIC
[15] = tested on: APEC O78; format: cell-based, avian pathogenic Escherichia coli (APEC)
[16] = tested on: APEC O1; format: cell-based, avian pathogenic Escherichia coli (APEC); settings: APEC O1, M63 media; MIC/MBC
[17] = tested on: intracellular APEC O2 in Caco-2 cells; experiment: Intracellular survival assay (cidal SMs); settings: O2, Caco-2, 6 h treatment; superscript = multiple of MIC
[18] = tested on: APEC O18; format: cell-based, avian pathogenic Escherichia coli (APEC); settings: APEC O18, M63 media; MIC/MBC
[19] = tested on: intracellular APEC O1 in Caco-2 cells; experiment: Intracellular survival assay (cidal SMs); settings: O1, Caco-2, 6 h treatment; superscript = multiple of MIC
[20] = tested on: APEC O1-63; format: cell-based, avian pathogenic Escherichia coli (APEC); settings: APEC O1-63, M63 media; MIC/MBC
[21] = tested on: intracellular APEC O2 in HD11 cells; experiment: Intracellular survival assay (cidal SMs); settings: O2, HD11, 6 h treatment; superscript = multiple of MIC
[22] = tested on: intracellular APEC O2 in THP-1 cells; experiment: Intracellular survival assay (cidal SMs); settings: O2, THP-1, 6 h treatment; superscript = multiple of MIC
[23] = tested on: biofilm embedded APEC O78; experiment: MBEC High-throughput assay; format: cell-based, avian pathogenic Escherichia coli (APEC); settings: biofilm embedded APEC O78; superscript = multiple of MIC (footnote)
[24] = tested on: APEC O78-53; format: cell-based, avian pathogenic Escherichia coli (APEC); settings: APEC O78-53, M63 media; MIC/MBC
[25] = tested on: APEC O35; format: cell-based, avian pathogenic Escherichia coli (APEC); settings: APEC O35, M63 media; MIC/MBC
[26] = tested on: Rif^r APEC O78; experiment: In vivo efficacy of growth inhibitors in APEC infected broiler chickens
[27] = APEC O78, M63 media, cell prints MIC/MBC, listed as 1

With CC1CCCN(CCC(=O)c2ccc(Br)cc2)C1.Cl (centres unmarked) [SM1] the MBC [1] was 200 µM, the MIC [1] was 200 µM and the “SMs intracellular APEC clearance concentration” value [2] was 200^a µM. The MBC [3] was 200 µM, the MIC [3] was 200 µM and the “SMs intracellular APEC clearance concentration” value [4] was 400^b µM. The “Absorbance 260” value ([5]; 260 nm absorbing material in supernatant) was 4.00*, the “Absorbance 280” value ([5]; 280 nm absorbing material in supernatant) was 3.08* and the “cytological profile (confocal, FM4-64 / SYTO-9)” value [6] was “PG synthesis inhibitors”. The MBC [7] was 200 µM, the MIC [7] was 200 µM and the MBC [8] was 200 µM. The MIC [8] was 200 µM, the MBC [9] was 250 µM and the MIC [9] was 200 µM. The “activity against STEC O157 and O26 strains” value [10] was “not cidal”, the “SMs intracellular APEC clearance concentration” value [11] was 200^a µM and the “SMs intracellular APEC clearance concentration” value [12] was 200^a µM. The MBC [13] was 200 µM, the MIC [13] was 200 µM and the “SMs intracellular APEC clearance concentration” value [14] was 400^b µM. The “MBC relative to MIC” value ([15]; APEC O78) was “identical to MIC”, the MBC ([15]; APEC O78, M63 media, cell prints MIC/MBC) was 200 µM and the MBC [15, 27] was 200 µM. For the same compound, the MIC [15, 27] was 200 µM, the MBC [16] was 250 µM and the MIC [16] was 200 µM. For the same compound, the “SMs intracellular APEC clearance concentration” value [17] was greater than 400 µM, the MBC [18] was 200 µM and the MIC [18] was 200 µM. The “SMs intracellular APEC clearance concentration” value [19] was greater than 400 µM, the MBC [20] was 250 µM and the MIC [20] was 200 µM. The “SMs intracellular APEC clearance concentration” value [21] was 200^a µM, the “SMs intracellular APEC clearance concentration” value [22] was 200^a µM and the MBEC [23] was 400^d µM. The MBC [24] was 200 µM, the MIC [24] was 200 µM and the MBC [25] was 200 µM. For the same compound, the MIC [25] was 200 µM, the “reduction of average APEC load in internal organs” value ([26]; average of liver, heart, lung and kidney, vs untreated control) was “either exacerbated or did not reduce” and the “reduction of APEC induced mortality” value ([26]; oral gavage twice a day, 5 days, untreated mortality (58.34%) normalized to 100%) was 14.28%. The “reduction of APEC lesions severity (%), Air-sacs (airsacculitis)” value ([26]; untreated control = 100%) was -5.9%, the “reduction of APEC lesions severity (%), Heart (pericarditis)” value ([26]; untreated control = 100%) was 33.3% and the “reduction of APEC lesions severity (%), Liver (perihepatitis)” value ([26]; untreated control = 100%) was -20%. The “reduction of APEC load, Heart” value ([26]; vs untreated control) was -1.8 log CFU/g of tissues, the “reduction of APEC load, Kidney” value ([26]; vs untreated control) was -1.1 log CFU/g of tissues and the “reduction of APEC load, Liver” value ([26]; vs untreated control) was -2.0 log CFU/g of tissues. The “reduction of APEC load, Lung” value ([26]; vs untreated control) was -1.4 log CFU/g of tissues and the “Body weight gain (BWG)” value ([26]; weight of live chickens before necropsy minus weight before treatment) was 165.62±69.17.
